Source: patent US20260355180A1, “COMPOSITIONS AND METHODS FOR SPLICEOSOME-TARGETED THERAPIES” (Institute for Cancer Research d/b/a The Research Institute …, priority 2022, published 2026)
“Also recorded” adds a separate entry of the source.

Tests used:
[1] = test system: wild type RPPM631 cells; assay: Viability of wild type RPPM631 cells; type: cell-based, mouse; details: PlaB
Source text: Next, we prepared ZBP1-KO RPPM631 cells to determine whether the necroptosis was ZBP-1 dependent.

[2] = test system: H82 SCLC cells; assay: Cell survival after PlaB treatment, H82; type: cell-based
Protocol: (§1) FIG. 2A) SCLC cell lines (H446 and H82) and immortalized fibroblasts (FC1010 and HS68) cell survival curves after 72 hours of PlaB treatment. FIG. 2B) RIPK1 depletion rescues H82 and H446 cell survival after 18 hours of PlaB treatment. FIG. 2C) Western blot showing RIPK1 protein depletion. Mean±SEM, Welch's t test *p<0.05, **p<0.01.
(§2) Cancer deregulates splicing^31,32, and we hypothesized that hyper-proliferative SCLCs are dependent on splicing machineries for increased tumorigenicity^90.

[3] = test system: H82 KO cells; assay: CytoToxicity of PlaB in TNFR1-, TRADD-, FADD-, CASP8-KO H82 cells (trypan blue); type: cell-based; details: 2.5 nM PlaB, 18 hrs
Source text: (§3) […]: CytoToxicity analysis of PlaB in TNFR1-KO and TRADD-KO H82 cells […] and H446 cells (FIG. 16B). CytoToxicity analysis of PlaB in FADD-KO and CASP8-KO H82 cells (FIG. 16C) and H446 cells (FIG. 16D). EV refers to cells treated with an empty vector.
(§4) Since RIPK1 mediated apoptosis can be triggered by TNF110, TNFR1 and TRADD-KO SCLC cell lines are generated herein for subsequent studies. Here, we utilize CRISPR-Cas9 KO to effectively knockout TNFR1 and TRADD in SCLC cells. To confirm depletion of TNFR1 and TRADD proteins, cell lysates are collected and western blot analysis is performed. The following experiments are performed using the TNFR1 and TRADD-KO SCLC cells generated above.
(§5) H82 and H446 WT and TNFR1 and TRADD-KO cells generated above are treated with DMSO or 2.5 nM PlaB for 18 hrs. Then, the cells are counted using 0.4% trypan blue solution assessing total viable cells and the percent of cell survived with the H82 and H446 WT cells is compared. (FIG. 15A-15B) This allows us to confirm whether TNF is partially or fully responsible for PlaB-mediated cell death in SCLC cell lines.
(§6) Additionally, we analyzed the role played by FADD and CAPS8 in rescuing H82 and H446 cells from PlaB induced toxicity. Using the methods described above for the generation of TNFR1 and TRADD-KO cells, H82 and H446 FADD-KO cells and H82 and H446 CASP8-KO cells were generated. These cells were then treated with DMSO or 2.5 nM PlaB for 18 hrs and compared to WT H82 and H446 cells. […] (FIG. 15C and FIG. 15D)

[4] = test system: H446 SCLC cells; assay: Cell survival after PlaB treatment, H446; type: cell-based, human
Protocol: as §1, §2

[5] = test system: H82 cells; assay: MAVS knock out rescue of PlaB-mediated cell death, H82; type: cell-based; details: MAVS KO H82; data not shown
Source text: Currently, ZBP1 and ADAR1 are the only two known proteins harbor Zα and interact with Z-NAs^104-109.

[6] = test system: H82 SCLC cells; assay: Antigen (HLA-ABC) and PD-L1 expression, H82; type: cell-based; details: 48 hours of 0.5 nM PlaB
Source text: FIG. 3A-3D: SF3B1 inhibition induces a potent IFN response and increases expression of IFN-regulated proteins. […] Mean±SEM, two-tailed unpaired Student's t test *p<0.05, **p<0.01, ***p<0.001, ****p<0.0001.
We also observed that SF3B1 inhibition triggers robust anti-tumor response and upregulates IFN-β, IFN-γ, and IFN-responsive genes by real-time reverse-transcription quantitative polymerase chain reaction (rRT-qPCR) in H446 and H82 cells (FIGS. 3A and 3B). […] These observations indicate that spliceosome inhibition is useful as a targeted therapy for SCLCs.

[7] = test system: MEF ΔZBP1 cells; assay: A-RNA and Z-NA accumulation in MEF ΔZBP1; type: cell-based, mouse
Protocol: (§7) FIG. 5A-5E: SF3B1 perturbation upregulates A-RNA and Z-nucleic acids in MEFs. (FIG. 5A) 5 nM of PlaB induces A-RNA and Z-Nucleic acids in ΔZBP1 MEF cells. (FIG. 5B) Quantification of A-RNA and Z-Nucleic acids. […] Plots of signal intensity are mean±SEM, two-tailed unpaired Student's t test *p<0.05, ***p<0.001, ****p<0.0001. 18 hours of PlaB treatment for IF, WB and rescue experiments. IF: 5 nM PlaB, WB and rescue experiments: 2.5 nM PlaB.
(§8) Since induction of Z-nAs can result in ZBP1-dependent necroptosis, we analyzed induction of necroptosis in necroptotic competent MEFs using spliceosome inhibition. […] We also determined that MEFs ΔZBP1, WT, and Flag-ZBP1 cells treated with PlaB began dying within 24hours after treatment. With MEF Flag-ZBP1 cells showing only 20% survival after 24 hours (FIG. 16).

[8] = test system: MEF Flag-ZBP1 cells; assay: A-RNA and Z-NA accumulation in MEF Flag-ZBP1; type: cell-based, mouse; details: SF3B1 inhibition
[9] = test system: SCLC cell lines; assay: Western blot of cleaved-PARP, pH2AX, ZBP1 and RIPK1 (FIG. 4C); type: cell-based; details: 48 hours of PlaB
Source text: FIG. 4A-4C: SF3B1 perturbation increases dsRNA and Z-nucleic acid levels in treated cells. […] (FIG. 4B) Quantification of A-RNA and Z-Nucleic acids. (FIG. 4C) Western blot showing induction of cleaved-PARP, pH2AX, and ZBP1, and the reduction of RIPK1 protein levels. Plots of signal intensity are mean±SEM, two-tailed unpaired Student's t test **p<0.01, ****p<0.0001.

[10] = test system: H446 KO cells; assay: CytoToxicity of PlaB in TNFR1-, TRADD-, FADD-, CASP8-KO H446 cells (trypan blue); type: cell-based, human; details: 2.5 nM PlaB, 18 hrs
Source text: as §3, §4, §5, §6

[11] = test system: MEF ΔZBP1 cells; assay: pMLKL western blot / necroptosis, MEF ΔZBP1; type: cell-based, mouse; details: 2.5 nM PlaB, 18 hours
Protocol: as §7, §8

[12] = nanomolar concentration of PlaB

## CCC(O)C(C)C1OC1CC(C)C=CC=C(C)C1OC(=O)CC(O)CCC(C)(O)C(OC(C)=O)C=CC1C (stereo not shown) [PlaB, Pladienolide B]
[1]
  viability: significant decrease in viability
[2]; 72 hours of PlaB, H82
  cell survival: drastically reduces cell survival; also recorded: dramatically reduces SCLC cell survival
[2]; [12]
  sensitivity to SF3B1 inhibition: particularly sensitive
[3]; H82 CASP8-KO
  rescue from PlaB toxicity by CASP8-KO: effectively rescued
[3]; H82 FADD-KO
  rescue from PlaB toxicity by FADD-KO: effectively rescued
[3]; H82 TNFR1-KO
  rescue from PlaB toxicity by TNFR1-KO: effectively rescued
[3]; H82 TRADD-KO
  rescue from PlaB toxicity by TRADD-KO: effectively rescued
[4]; 72 hours of PlaB, H446
  cell survival: drastically reduces cell survival; also recorded: dramatically reduces SCLC cell survival
[4]; [12]
  sensitivity to SF3B1 inhibition: particularly sensitive
[5]
  rescue of PlaB-mediated cell death by MAVS knock out: only minimally rescue
[6]
  PD-L1 expression: effectively upregulates
  antigen expression: effectively upregulates
[7]; 5 nM PlaB, 18 hours
  A-RNA induction: induces
  Z-Nucleic acids induction: induces
[7]; SF3B1 inhibition
  A-RNA and Z-NA accumulation: accumulation
[8]
  A-RNA and Z-NA accumulation: accumulation
[9]
  RIPK1 protein level: dropped considerably
  ZBP1 protein: increased; also recorded: slight increase
  cleaved-PARP protein: increased
  pH2AX protein: increased
[10]; H446 CASP8-KO
  rescue from PlaB toxicity by CASP8-KO: effectively rescued
[10]; H446 FADD-KO
  rescue from PlaB toxicity by FADD-KO: effectively rescued
[10]; H446 TNFR1-KO
  rescue from PlaB toxicity by TNFR1-KO: effectively rescued
[10]; H446 TRADD-KO
  rescue from PlaB toxicity by TRADD-KO: effectively rescued
[11]
  pMLKL (necroptosis): not triggered
